# Measured values: the Kinase Knowledgebase extract (Sharma et al. 2016)
# Target: PIK3CG (human) (UniProt P48736)
# Test: Inhibition of PIK3CG Kinase Activity
# PIK3CG (human), sequence (P48736 whole entry, looked up): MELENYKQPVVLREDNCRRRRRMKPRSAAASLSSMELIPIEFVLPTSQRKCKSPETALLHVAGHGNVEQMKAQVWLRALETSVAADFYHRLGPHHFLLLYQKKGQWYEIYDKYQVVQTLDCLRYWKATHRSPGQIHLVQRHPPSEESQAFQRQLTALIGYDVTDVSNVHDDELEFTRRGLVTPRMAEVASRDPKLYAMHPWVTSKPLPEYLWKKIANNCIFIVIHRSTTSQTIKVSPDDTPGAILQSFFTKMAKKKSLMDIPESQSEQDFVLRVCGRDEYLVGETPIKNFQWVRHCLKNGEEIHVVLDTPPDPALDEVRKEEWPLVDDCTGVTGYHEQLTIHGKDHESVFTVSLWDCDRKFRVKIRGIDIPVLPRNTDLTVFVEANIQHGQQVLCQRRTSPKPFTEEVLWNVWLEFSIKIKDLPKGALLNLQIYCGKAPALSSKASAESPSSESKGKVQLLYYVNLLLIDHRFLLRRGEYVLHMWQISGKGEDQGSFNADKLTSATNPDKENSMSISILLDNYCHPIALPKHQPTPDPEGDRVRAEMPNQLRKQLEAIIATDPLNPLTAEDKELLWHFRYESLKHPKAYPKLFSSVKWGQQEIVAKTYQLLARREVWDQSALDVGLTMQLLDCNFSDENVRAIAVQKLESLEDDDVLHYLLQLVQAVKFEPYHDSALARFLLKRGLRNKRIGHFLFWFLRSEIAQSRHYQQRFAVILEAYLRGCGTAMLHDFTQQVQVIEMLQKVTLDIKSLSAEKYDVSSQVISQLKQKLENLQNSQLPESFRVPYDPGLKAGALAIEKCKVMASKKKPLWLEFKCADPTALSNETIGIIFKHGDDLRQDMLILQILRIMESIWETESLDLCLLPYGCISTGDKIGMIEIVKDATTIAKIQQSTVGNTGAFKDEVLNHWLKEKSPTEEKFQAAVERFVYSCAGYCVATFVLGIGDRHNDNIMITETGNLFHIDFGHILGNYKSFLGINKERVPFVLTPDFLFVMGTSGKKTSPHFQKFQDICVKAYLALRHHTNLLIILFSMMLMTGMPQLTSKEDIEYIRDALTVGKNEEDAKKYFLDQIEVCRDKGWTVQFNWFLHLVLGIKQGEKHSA
row,IC50 [nM],SMILES
1,0.95,CN(C)CCNC(=O)c1ccc(NC(=O)Nc2ccc(-c3nc(N4CCOCC4)c4nnn(-c5cccc(C(=O)O)c5)c4n3)cc2)cc1
2,1.85,CCn1nnc2c(N3CCOCC3)nc(-c3ccc(NC(=O)Nc4ccc(NC(=O)N5CCN(C)CC5)cc4)cc3)nc21
3,7.33,CCn1nnc2c(N3CCOCC3)nc(-c3ccc(NC(=O)Nc4ccc(N)cc4)cc3)nc21
4,1.7,CCn1nnc2c(N3CCOCC3)nc(-c3ccc(NC(=O)Nc4ccc(NC(=O)NCCN5CCCC5)cc4)cc3)nc21
5,1.85,CCn1nnc2c(N3CCOCC3)nc(-c3ccc(NC(=O)Nc4ccc(C(=O)Nc5cccnc5)cc4)cc3)nc21
6,1.85,CCn1nnc2c(N3CCOCC3)nc(-c3ccc(NC(=O)Nc4ccc(C(=O)N(C)CCN(C)C)nc4)cc3)nc21
7,20,O=C(Nc1ccncc1)Nc1ccc(-c2nc(N3CCOCC3)c3nnn(CCO)c3n2)cc1
8,1.7,CCn1nnc2c(N3CCOCC3)nc(-c3ccc(NC(=O)Nc4ccc(NC(=O)NC5CCN(C)CC5)cc4)cc3)nc21
9,0.75,CCn1nnc2c(N3CCOCC3)nc(-c3ccc(NC(=O)Nc4ccc(NC(=O)N5CCC(N6CCCC6)CC5)cc4)cc3)nc21
10,1.65,CCn1nnc2c(N3CCOCC3)nc(-c3ccc(NC(=O)Nc4ccc(NC(=O)N5CCCN(C)CC5)cc4)cc3)nc21
11,1.85,CCn1nnc2c(N3CCOCC3)nc(-c3ccc(NC(=O)Nc4ccc(NC(=O)c5ccncc5)cc4)cc3)nc21
12,790,CC(C)(C)OC(=O)N1CC(n2nnc3c(N4CCOCC4)nc(-c4ccc(NC(=O)Nc5ccccc5)cc4)nc32)C1
13,1.65,CCn1nnc2c(N3CCOCC3)nc(-c3ccc(NC(=O)Nc4ccc(NC(=O)NCCN(C)C)cc4)cc3)nc21
14,1.65,CCn1nnc2c(N3CCOCC3)nc(-c3ccc(NC(=O)Nc4ccc(NC(=O)N(C)CCN(C)C)cc4)cc3)nc21
15,8,CCn1nnc2c(N3CCOCC3)nc(-c3ccc(NC(=O)Nc4ccc(C(=O)NN(C)C)cc4)cc3)nc21
16,2.2,CCn1nnc2c(N3CCOC[C@@H]3C)nc(-c3ccc(NC(=O)Nc4ccc(C(=O)N(C)CCN(C)C)cc4)cc3)nc21

row,IC50 [nM],SMILES
1,426,Oc1cccc(-c2nc(N3CCOCC3)c3nnn(C4CCN(Cc5ccc[nH]5)CC4)c3n2)c1
2,3.3,CCn1nnc2c(N3CCOCC3)nc(-c3ccc(NC(=O)Nc4ccc(NC(=O)NCc5ccccn5)cc4)cc3)nc21
3,0.8,CN(C)CCNC(=O)c1ccc(NC(=O)Nc2ccc(-c3nc(N4CCOCC4)c4nnn(-c5cccc(C(N)=O)c5)c4n3)cc2)cc1
4,216,Oc1cccc(-c2nc(N3CCOCC3)c3nnn(CCCCN4CCN(Cc5ccccc5)CC4)c3n2)c1
5,2.15,CCn1nnc2c(N3CCOC[C@@H]3C)nc(-c3ccc(NC(=O)Nc4ccc(C(=O)N5CCN(C)CC5)cc4)cc3)nc21
6,1.83,CCn1nnc2c(N3CCOCC3)nc(-c3ccc(NC(=O)Nc4ccc(NC(=O)c5cccc(N(C)C)c5)cc4)cc3)nc21
7,1.85,CCn1nnc2c(N3CCOC[C@@H]3C)nc(-c3ccc(NC(=O)Nc4ccc(C(=O)NCCN(C)C)cc4)cc3)nc21
8,3.3,CCn1nnc2c(N3CCOCC3)nc(-c3ccc(NC(=O)Nc4ccc(C(=O)O)nc4)cc3)nc21
9,3.3,CCn1nnc2c(N3CCOCC3)nc(-c3ccc(NC(=O)Nc4ccc(NCc5cccnc5)cc4)cc3)nc21
10,1.45,CCn1nnc2c(N3CCOCC3)nc(-c3ccc(NC(=O)Nc4ccc(NC(=O)N5CCC(N(C)C)CC5)cc4)cc3)nc21
11,0.9,CCN1CCN(C(=O)Nc2ccc(NC(=O)Nc3ccc(-c4nc(N5CCOCC5)c5nnn(CC)c5n4)cc3)cc2)CC1
12,1.35,CCn1nnc2c(N3CCOCC3)nc(-c3ccc(NC(=O)Nc4ccc(CN5CCN(C)CC5)cc4)cc3)nc21
13,1.8,CCn1nnc2c(N3CCOCC3)nc(-c3ccc(NC(=O)Nc4ccc(NC(=O)NCCN5CCN(C)CC5)cc4)cc3)nc21
14,2,CC(C)n1nnc2c(N3CCOCC3)nc(-c3ccc(NC(=O)Nc4ccc(C(=O)NCCN(C)C)cc4)cc3)nc21
15,1.33,CCn1nnc2c(N3CCOCC3)nc(-c3ccc(NC(=O)Nc4ccc(NC(=O)CN(C)C)cc4)cc3)nc21
16,1.7,CCn1nnc2c(N3CCOCC3)nc(-c3ccc(NC(=O)Nc4ccc(NC(=O)N5CCNCC5)cc4)cc3)nc21

# Target: PIK3CA (human) (UniProt P42336)
# Test: Inhibition of PIK3CA Kinase Activity
# PIK3CA (human), sequence (P42336 whole entry, looked up): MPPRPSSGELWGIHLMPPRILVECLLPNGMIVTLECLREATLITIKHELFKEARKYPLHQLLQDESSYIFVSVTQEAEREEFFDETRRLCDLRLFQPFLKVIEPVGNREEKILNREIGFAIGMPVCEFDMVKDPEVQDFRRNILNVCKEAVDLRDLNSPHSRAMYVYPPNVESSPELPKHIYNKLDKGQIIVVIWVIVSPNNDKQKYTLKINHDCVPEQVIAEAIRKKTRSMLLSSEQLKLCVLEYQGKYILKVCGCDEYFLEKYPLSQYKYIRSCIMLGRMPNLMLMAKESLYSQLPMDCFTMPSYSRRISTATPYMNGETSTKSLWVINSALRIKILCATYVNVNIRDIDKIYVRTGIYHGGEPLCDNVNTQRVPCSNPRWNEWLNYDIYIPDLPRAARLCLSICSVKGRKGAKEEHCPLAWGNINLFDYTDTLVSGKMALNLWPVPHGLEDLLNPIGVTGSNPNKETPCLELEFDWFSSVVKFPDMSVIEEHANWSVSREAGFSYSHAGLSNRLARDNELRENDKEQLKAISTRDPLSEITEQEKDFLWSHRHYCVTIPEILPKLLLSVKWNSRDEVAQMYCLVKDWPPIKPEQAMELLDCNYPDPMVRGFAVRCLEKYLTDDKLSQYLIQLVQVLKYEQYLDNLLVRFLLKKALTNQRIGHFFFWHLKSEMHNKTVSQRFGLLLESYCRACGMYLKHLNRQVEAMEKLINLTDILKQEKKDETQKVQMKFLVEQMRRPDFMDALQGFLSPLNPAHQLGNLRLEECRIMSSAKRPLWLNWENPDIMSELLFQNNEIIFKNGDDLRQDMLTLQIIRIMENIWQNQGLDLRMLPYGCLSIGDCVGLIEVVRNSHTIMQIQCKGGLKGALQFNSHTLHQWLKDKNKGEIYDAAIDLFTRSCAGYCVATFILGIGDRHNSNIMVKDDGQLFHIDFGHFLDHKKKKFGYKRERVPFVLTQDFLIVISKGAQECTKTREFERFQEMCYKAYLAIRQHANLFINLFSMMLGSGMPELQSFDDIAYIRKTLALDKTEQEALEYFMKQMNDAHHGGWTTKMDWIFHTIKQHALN
row,IC50 [nM],SMILES
1,651,CN(C)CCNC(=O)c1ccc(NC(=O)Nc2ccc(-c3nc(N4CCOCC4)c4nnn(-c5cccc(C(=O)O)c5)c4n3)cc2)cc1
2,569,CCn1nnc2c(N3CCOCC3)nc(-c3ccc(NC(=O)Nc4ccc(NCc5ccc(F)nc5)cc4)cc3)nc21
3,586,CCn1nnc2c(N3CCOCC3)nc(-c3ccc(NC(=O)Nc4ccc(NC(=O)N5CCN(C)CC5)cc4)cc3)nc21
4,558,CC(C)n1nnc2c(N3CCOCC3)nc(-c3ccc(NC(=O)Nc4ccc(N5CCN(C)CC5)cc4)cc3)nc21
5,460,CCn1nnc2c(N3CCOCC3)nc(-c3ccc(NC(=O)Nc4ccc(N)cc4)cc3)nc21
6,601,CCn1nnc2c(N3CCOCC3)nc(-c3ccc(NC(=O)Nc4ccc(NC(=O)NCCN5CCCC5)cc4)cc3)nc21
7,565,CCn1nnc2c(N3CCOCC3)nc(-c3ccc(NC(=O)Nc4ccc(C(=O)Nc5cccnc5)cc4)cc3)nc21
8,560,CCn1nnc2c(N3CCOCC3)nc(-c3ccc(NC(=O)Nc4ccc(C(=O)N(C)CCN(C)C)nc4)cc3)nc21
9,5.3,O=C(Nc1ccncc1)Nc1ccc(-c2nc(N3CCOCC3)c3nnn(CCO)c3n2)cc1
10,585,CC(C)n1nnc2c(N3CCOCC3)nc(-c3ccc(NC(=O)Nc4ccc(C(=O)N5CCN(C)CC5)cc4)cc3)nc21
11,601,CCn1nnc2c(N3CCOCC3)nc(-c3ccc(NC(=O)Nc4ccc(NC(=O)NC5CCN(C)CC5)cc4)cc3)nc21
12,640,CCn1nnc2c(N3CCOCC3)nc(-c3ccc(NC(=O)Nc4ccc(NC(=O)N5CCC(N6CCCC6)CC5)cc4)cc3)nc21
13,600,CCn1nnc2c(N3CCOCC3)nc(-c3ccc(NC(=O)Nc4ccc(NC(=O)N5CCCN(C)CC5)cc4)cc3)nc21
14,565,CCn1nnc2c(N3CCOCC3)nc(-c3ccc(NC(=O)Nc4ccc(NC(=O)c5ccncc5)cc4)cc3)nc21
15,613,CCn1nnc2c(N3CCOC[C@@H]3C)nc(-c3ccc(NC(=O)Nc4ccc(C(=O)NCCN5CCCCC5)cc4)cc3)nc21
16,58,CC(C)(C)OC(=O)N1CC(n2nnc3c(N4CCOCC4)nc(-c4ccc(NC(=O)Nc5ccccc5)cc4)nc32)C1
17,574,CCn1nnc2c(N3CCOCC3)nc(-c3ccc(NC(=O)Nc4ccc(NC(=O)NCCN(C)C)cc4)cc3)nc21
18,581,CCn1nnc2c(N3CCOCC3)nc(-c3ccc(NC(=O)Nc4ccc(NCc5ccc(OC)nc5)cc4)cc3)nc21
19,543,CCn1nnc2c(N3CCOCC3)nc(-c3ccc(NC(=O)Nc4ccc(N5CCN(C)CC5)cc4)cc3)nc21
20,573,CCn1nnc2c(N3CCOCC3)nc(-c3ccc(NC(=O)Nc4ccc(NC(=O)N5CCOCC5)cc4)cc3)nc21
21,588,CCn1nnc2c(N3CCOCC3)nc(-c3ccc(NC(=O)Nc4ccc(NC(=O)N(C)CCN(C)C)cc4)cc3)nc21
22,531,CCn1nnc2c(N3CCOCC3)nc(-c3ccc(NC(=O)Nc4ccc(C(=O)NN(C)C)cc4)cc3)nc21
23,613,CCn1nnc2c(N3CCOC[C@@H]3C)nc(-c3ccc(NC(=O)Nc4ccc(C(=O)N5CCC(N(C)C)CC5)cc4)cc3)nc21
24,504,CCn1nnc2c(N3CCOCC3)nc(-c3ccc(NC(=O)Nc4ccc(C(=O)OC)nc4)cc3)nc21
25,587,CCn1nnc2c(N3CCOC[C@@H]3C)nc(-c3ccc(NC(=O)Nc4ccc(C(=O)N(C)CCN(C)C)cc4)cc3)nc21

row,IC50 [nM],SMILES
1,62,Oc1cccc(-c2nc(N3CCOCC3)c3nnn(C4CCN(Cc5ccc[nH]5)CC4)c3n2)c1
2,490,CCn1nnc2c(N3CCOCC3)nc(-c3ccc(NC(=O)Nc4ccc([N+](=O)[O-])cc4)cc3)nc21
3,504,CC(C)n1nnc2c(N3CCOCC3)nc(-c3ccc(NC(=O)Nc4ccc([N+](=O)[O-])cc4)cc3)nc21
4,594,CCn1nnc2c(N3CCOCC3)nc(-c3ccc(NC(=O)Nc4ccc(NC(=O)NCc5ccccn5)cc4)cc3)nc21
5,552,CC(C)n1nnc2c(N3CCOCC3)nc(-c3ccc(NC(=O)Nc4ccc(NS(C)(=O)=O)cc4)cc3)nc21
6,650,CN(C)CCNC(=O)c1ccc(NC(=O)Nc2ccc(-c3nc(N4CCOCC4)c4nnn(-c5cccc(C(N)=O)c5)c4n3)cc2)cc1
7,116,Oc1cccc(-c2nc(N3CCOCC3)c3nnn(CCCCN4CCN(Cc5ccccc5)CC4)c3n2)c1
8,585,CCn1nnc2c(N3CCOC[C@@H]3C)nc(-c3ccc(NC(=O)Nc4ccc(C(=O)N5CCN(C)CC5)cc4)cc3)nc21
9,599,CCn1nnc2c(N3CCOC[C@@H]3C)nc(-c3ccc(NC(=O)Nc4ccc(C(=O)NCCN5CCCC5)cc4)cc3)nc21
10,607,CCn1nnc2c(N3CCOCC3)nc(-c3ccc(NC(=O)Nc4ccc(NC(=O)c5cccc(N(C)C)c5)cc4)cc3)nc21
11,573,CCn1nnc2c(N3CCOC[C@@H]3C)nc(-c3ccc(NC(=O)Nc4ccc(C(=O)NCCN(C)C)cc4)cc3)nc21
12,490,CCn1nnc2c(N3CCOCC3)nc(-c3ccc(NC(=O)Nc4ccc(C(=O)O)nc4)cc3)nc21
13,552,CCn1nnc2c(N3CCOCC3)nc(-c3ccc(NC(=O)Nc4ccc(NCc5cccnc5)cc4)cc3)nc21
14,614,CCn1nnc2c(N3CCOCC3)nc(-c3ccc(NC(=O)Nc4ccc(NC(=O)N5CCC(N(C)C)CC5)cc4)cc3)nc21
15,561,CCn1nnc2c(N3CCOCC3)nc(-c3ccc(NC(=O)Nc4ccc(NC(=O)NCCOC)cc4)cc3)nc21
16,600,CCN1CCN(C(=O)Nc2ccc(NC(=O)Nc3ccc(-c4nc(N5CCOCC5)c5nnn(CC)c5n4)cc3)cc2)CC1
17,557,CCn1nnc2c(N3CCOCC3)nc(-c3ccc(NC(=O)Nc4ccc(CN5CCN(C)CC5)cc4)cc3)nc21
18,629,CCn1nnc2c(N3CCOCC3)nc(-c3ccc(NC(=O)Nc4ccc(NC(=O)NCCN5CCN(C)CC5)cc4)cc3)nc21
19,572,CC(C)n1nnc2c(N3CCOCC3)nc(-c3ccc(NC(=O)Nc4ccc(C(=O)NCCN(C)C)cc4)cc3)nc21
20,572,CCn1nnc2c(N3CCOCC3)nc(-c3ccc(NC(=O)Nc4ccc(C(=O)N5CCN(C)CC5)nc4)cc3)nc21
21,574,CCn1nnc2c(N3CCOCC3)nc(-c3ccc(NC(=O)Nc4ccc(NC(=O)CN(C)C)cc4)cc3)nc21
22,552,CCn1nnc2c(N3CCOCC3)nc(-c3ccc(NC(=O)Nc4ccc(NCc5ccncc5)cc4)cc3)nc21
23,473,CC(C)n1nnc2c(N3CCOCC3)nc(-c3ccc(NC(=O)Nc4ccc(N)cc4)cc3)nc21
24,573,CCn1nnc2c(N3CCOCC3)nc(-c3ccc(NC(=O)Nc4ccc(NC(=O)N5CCNCC5)cc4)cc3)nc21
